Test results taken from patent publication US8741338B2, “Targeted delivery to human diseases and disorders” (Universidade de Coimbra, priority 2008, dated 2014).

Columns and labels:
[1] = tested on: MDA-MB-435S cells; assay: MTT proliferation assay, cytotoxicity of DXR formulations; format: cell-based; details: Homo sapiens, total 96 h
Description: (§1) In vitro cytotoxicity of free doxorubicin (DXR) and DXR-containing liposomes was determined for […] and HMEC-1 cells using the MTT (3-(4,5-Dimethylthiazol-2-yl)-2,5-diphenyltetrazolium bromide) proliferation assay (Mosmann, 1983). Briefly, cells were plated in 96-well plates at a density of 8,000 cells per well and incubated with free DXR, non-targeted pH-sensitive (or non-pH-sensitve) liposomes containing DXR or targeted pH-sensitive (or non-pH-sensitve) liposomes containing DXR. Additional controls included free peptide and empty targeted liposomes. Cells were incubated for 1, 3, 24 and 48 h at 37° C. in an atmosphere of 95% humidity and 5% CO2. At the end of the incubation time, cells were gently washed twice with cold PBS to remove DXR and maintained in fresh medium for a total of 96 h. After incubation, the medium was replaced by a solution of 0.5 mg/ml MTT and the cells were further incubated for 4 h at 37° C. in an atmosphere of 95% humidity and 5% CO2. Crystals were dissolved in acidic isopropanol and absorbance in each well was read at 570 nm in a microplate reader (Multiscan EX—Thermo Electron Corporation). IC50 of DXR mediated by the different formulations was determined from the dose/response curves.

[2] = tested on: HMEC-1 cells; assay: as above; format: cell-based; details: Homo sapiens, total 96 h
Description: as §1

COc1cccc2c1C(=O)c1c(O)c3c(c(O)c1C2=O)C[C@@](O)(C(=O)CO)C[C@@H]3O[C@H]1C[C@H](N)[C@H](O)[C@H](C)O1 [DXR, Doxorubicin]
IC50 ([1]; 1 h incubation with drug): 1610 ± 460 nM
IC50 ([1]; 3 h incubation with drug): 1450 ± 270 nM
IC50 ([1]; 24 h incubation with drug): 232 ± 45 nM
IC50 ([1]; 48 h incubation with drug): 113 ± 78 nM
IC50 ([2]; HMEC-1, HMEC-1, 1 h incubation with drug): 434 ± 30 nM
IC50 ([2]; HMEC-1, HMEC-1, 3 h incubation with drug): 401 ± 59 nM
IC50 ([2]; HMEC-1, HMEC-1, 24 h incubation with drug): 72 ± 10 nM
IC50 ([2]; HMEC-1, HMEC-1, 48 h incubation with drug): 58 ± 8 nM
